The assay has as its system Hartley-type male guinea pigs. In words: Guinea Pig Homogeneous Skin Passive Anaphylaxis Assay (PCA reaction). Particulars: Cavia porcellus, 10 mg/kg oral, 48 h after sensitization, read-out: Allergic reaction inhibitory index (%). It is filed as in vivo, guinea pig (Hartley-type). A digest of the protocol:
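Inhibition % is derived from Evans Blue leakage area (mm^2, product of spot diameters) read 30 min after i.v. OVA/dye challenge. Beforehand, male Hartley guinea pigs (250~300 g) were passively sensitized intradermally with 120-fold-diluted anti-OVA serum and, after 48 h, received test compound 10 mg/kg p.o.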

Structures are written as SMILES.

For `CC(C)=CCC/C(C)=C/COc1c(OC/C=C(\C)CCC=C(C)C)c2c(OC(C)C)cccc2oc1=O` [Compound 223, 3,4-(digeranyloxy)-5-(isopropoxy)-2H-1-benzopyran-2-one], the inhibition in vivo at 10 mg/kg was determined as 33%. Regarding `CC(C)=CCC/C(C)=C/COc1c(O)c(=O)oc2cccc(O)c12` [Compound 188, 3,5-(dihydroxy)-4-(geranyloxy)-2H-1-benzopyran-2-one], the inhibition in vivo at 10 mg/kg is 32%. The result for `CCCCCCCCCCOc1c(OC(=O)c2ccccc2)c2cccc(OC(C)C)c2oc1=O` [Compound 137, 3-(decyloxy)-4-(benzoyloxy)-8-(isopropoxy)-2H-1-benzopyran-2-one] reads 32%; that for `CCCCCCCCCCOc1cccc2c(O)c(OC/C=C(\C)CCC=C(C)C)c(=O)oc12` [Compound 151, 3-(geranyloxy)-4-hydroxy-8-(decyloxy)-2H-1-benzopyran-2-one], 34%.

For `CCCCCCCCCCOc1c(OC)c(=O)oc2cccc(O)c12` [Compound 184, 3-(methoxy)-4-(decyloxy)-5-hydroxy-2H-1-benzopyran-2-one], the inhibition in vivo at 10 mg/kg worked out at 33%. Turning to `CC(=O)Oc1c(OC/C=C(\C)CCC=C(C)C)c(=O)oc2cccc(OC/C=C(\C)CCC=C(C)C)c12` [Compound 255, 3,5-(digeranyloxy)-4-(acetoxy)-2H-1-benzopyran-2-one], the inhibition in vivo at 10 mg/kg is 33%. Then `CC(C)Oc1c(O)c(=O)oc2c(OC(C)C)cccc12` [Compound 134, 3-hydroxy-4,8-(disopropoxy)-2H-1-benzopyran-2-one], with 30%; and `COc1c(OC(C)=O)c2cccc(O)c2oc1=O` [Compound 101, 3-(methoxy)-4-(acetoxy)-8-hydroxy-2H-1-benzopyran-2-one], with 30%; and `O=c1oc2cccc(O)c2c(O)c1O` [Compound 177, 3,4,5-trihydroxy-2H-1-benzopyran-2-one], with 37%. The result for `CC(C)=CCC/C(C)=C/COc1c(O)c2cccc(O)c2oc1=O` [Compound 102, 3-(geranyloxy)-4,8-(dihydroxy)-2H-1-benzopyran-2-one] reads 35%; that for `COc1c(O)c2c(OC/C=C(\C)CCC=C(C)C)cccc2oc1=O` [Compound 248, 3-(methoxy)-4-hydroxy-5-(geranyloxy)-2H-1-benzopyran-2-one], 35%. The result for `CC(C)=CCC/C(C)=C/COc1c(OC(C)C)c(=O)oc2cccc(O)c12` [Compound 192, 3-(isopropoxy)-4-(geranyloxy)-5-hydroxy-2H-1-benzopyran-2-one] reads 37%. For `CC(C)Oc1ccc2c(O)c(OC(=O)c3ccccc3)c(=O)oc2c1` [Compound 44, 3-(benzoyloxy)-4-(hydroxy)-7-(isopropoxy)-2H-1-benzopyran-2-one], the inhibition in vivo at 10 mg/kg was determined as 37%.

As to `O=c1oc2cc(O)ccc2c(O)c1O` [Compound 5, 3,4,7-trihydroxy-2H-1-benzopyran-2-one], the inhibition in vivo at 10 mg/kg was found to be 68%. For `CC(=O)Oc1c(O)c(=O)oc2c(OC(C)C)cccc12` [Compound 131, 3-hydroxy-4-(acetoxy)-8-(isopropoxy)-2H-1-benzopyran-2-one], the inhibition in vivo at 10 mg/kg came out at 31%. The result for `COc1cccc2oc(=O)c(O)c(OC(C)=O)c12` [Compound 196, 3-hydroxy-4-(acetoxy)-5-(methoxy)-2H-1-benzopyran-2-one] reads 33%; that for `COc1c(OC/C=C(\C)CCC=C(C)C)c(=O)oc2cccc(O)c12` [Compound 191, 3-(geranyloxy)-4-(methoxy)-5-hydroxy-2H-1-benzopyran-2-one], 30%; that for `CC(C)=CCC/C(C)=C/COc1c(O)c2cccc(OC(C)C)c2oc1=O` [Compound 138, 3-(geranyloxy)-4-hydroxy-8-(isopropoxy)-2H-1-benzopyran-2-one], 35%. Then `CC(=O)Oc1c(OC(=O)c2ccccc2)c(=O)oc2cc(OC/C=C(\C)CCC=C(C)C)ccc12` [Compound 77, 3-(benzoyloxy)-4-(acetoxy)-7-(geranyloxy)-2H-1-benzopyran-2-one], with 31%; and `COc1ccc2c(OC(C)=O)c(O)c(=O)oc2c1` [Compound 31, 3-hydroxy-4-(acetoxy)-7-(methoxy)-2H-1-benzopyran-2-one], with 38%; and `CCCCCCCCCCOc1cccc2oc(=O)c(OC(C)=O)c(OC(C)C)c12` [Compound 235, 3-(acetoxy)-4-(isopropoxy)-5-(decyloxy)-2H-1-benzopyran-2-one], with 30%.

Regarding `CCCCCCCCCCOc1cccc2oc(=O)c(OC(C)C)c(OC/C=C(\C)CCC=C(C)C)c12` [Compound 242, 3-(isopropoxy)-4-(geranyloxy)-5-(decyloxy)-2H-1-benzopyran-2-one], the inhibition in vivo at 10 mg/kg was 30%. Then `CCCCCCCCCCOc1cccc2oc(=O)c(O)c(OC/C=C(\C)CCC=C(C)C)c12` [Compound 238, 3-hydroxy-4-(geranyloxy)-5-(decyloxy)-2H-1-benzopyran-2-one], with 33%; and `CC(C)Oc1cccc2c(O)c(OC(=O)c3ccccc3)c(=O)oc12` [Compound 129, 3-(benzoyloxy)-4-hydroxy-8-(isopropoxy)-2H-1-benzopyran-2-one], with 36%. The result for `CCCCCCCCCCOc1cccc2oc(=O)c(OC/C=C(\C)CCC=C(C)C)c(OC/C=C(\C)CCC=C(C)C)c12` [Compound 243, 3,4-(digeranyloxy)-5-(decyloxy)-2H-1-benzopyran-2-one] reads 31%; that for `COc1cccc2oc(=O)c(OC/C=C(\C)CCC=C(C)C)c(OC/C=C(\C)CCC=C(C)C)c12` [Compound 209, 3,4-(digeranyloxy)-5-(methoxy)-2H-1-benzopyran-2-one], 33%. The result for `CC(C)=CCC/C(C)=C/COc1c(OC/C=C(\C)CCC=C(C)C)c2cccc(OC(C)C)c2oc1=O` [Compound 142, 3,4-(digeranyloxy)-8-(isopropoxy)-2H-1-benzopyran-2-one] reads 31%; that for `CC(C)=CCC/C(C)=C/COc1cccc2oc(=O)c(O)c(OC/C=C(\C)CCC=C(C)C)c12` [Compound 254, 3-hydroxy-4,5-(digeranyloxy)-2H-1-benzopyran-2-one], 30%. As for `COc1cccc2c(OC/C=C(\C)CCC=C(C)C)c(OC/C=C(\C)CCC=C(C)C)c(=O)oc12` [Compound 126, 3,4-(digeranyloxy)-8-(methoxy)-2H-1-benzopyran-2-one], the inhibition in vivo at 10 mg/kg was 30%.

`CC(C)=CCC/C(C)=C/COc1c(O)c(=O)oc2c(OC(C)C)cccc12` [Compound 139, 3-hydroxy-4-(geranyloxy)-8-(isopropoxy)-2H-1-benzopyran-2-one]: the inhibition in vivo at 10 mg/kg stood at 33%.

As to `COc1ccc2oc(=O)c(OC(C)=O)c(O)c2c1` [Compound 278, 3-(acetoxy)-4-(hydroxy)-6-(methoxy)-2H-1-benzopyran-2-one], the inhibition in vivo at 10 mg/kg was found to be 36%. The result for `CC(=O)Oc1ccc2c(OC(C)=O)c(OC(C)=O)c(=O)oc2c1` [Compound 11, 3,4,7-(triacetoxy)-2H-1-benzopyran-2-one] reads 31%.

Turning to `CCCCCCCCCCOc1c(O)c(=O)oc2cc(O)ccc12` [Compound 9, 4-(decyloxy)-3,7-(dihydroxy)-2H-1-benzopyran-2-one], the inhibition in vivo at 10 mg/kg came out at 39%. The result for `CC(C)=CCC/C(C)=C/COc1c(OC(C)C)c2ccc(OC(C)C)cc2oc1=O` [Compound 55, 3-(geranyloxy)-4,7-(diisopropoxy)-2H-1-benzopyran-2-one] reads 33%.

As for `CCCCOc1cccc2c(O)c(OC(=O)c3ccccc3)c(=O)oc12` [Compound 127, 3-(benzoyloxy)-4-hydroxy-8-(butyloxy)-2H-1-benzopyran-2-one], the inhibition in vivo at 10 mg/kg is 34%. On to `CCCCCCCCCCOc1cccc2c(OC/C=C(\C)CCC=C(C)C)c(OC(=O)c3ccccc3)c(=O)oc12` [Compound 154, 3-(benzoyloxy)-4-(geranyloxy)-8-(decyloxy)-2H-1-benzopyran-2-one], for which the inhibition in vivo at 10 mg/kg came to 31%. Then `COc1c(O)c2cccc(OC/C=C(\C)CCC=C(C)C)c2oc1=O` [Compound 162, 3-(methoxy)-4-hydroxy-8-(geranyloxy)-2H-1-benzopyran-2-one], with 31%. The result for `CCCCCCCCCCOc1c(OC(C)C)c2ccc(OC/C=C(\C)CCC=C(C)C)cc2oc1=O` [Compound 80, 3-(decyloxy)-4-(isopropoxy)-7-(geranyloxy)-2H-1-benzopyran-2-one] reads 30%. Then `COc1cccc2c(OC(=O)c3ccccc3)c(OC(C)=O)c(=O)oc12` [Compound 114, 3-(acetoxy)-4-(benzoyloxy)-8-(methoxy)-2H-1-benzopyran-2-one], with 31%; and `CC(=O)Oc1c(OC(C)=O)c2c(OC(C)=O)cccc2oc1=O` [Compound 179, 3,4,5-(triacetoxy)-2H-1-benzopyran-2-one], with 32%. Regarding `CC(C)=CCC/C(C)=C/COc1cccc2oc(=O)c(OC(=O)c3ccccc3)c(OC/C=C(\C)CCC=C(C)C)c12` [Compound 256, 3-(benzoyloxy)-4,5-(digeranyloxy)-2H-1-benzopyran-2-one], the inhibition in vivo at 10 mg/kg worked out at 30%. Regarding `COc1c(OC/C=C(\C)CCC=C(C)C)c(=O)oc2c(O)cccc12` [Compound 107, 3-(geranyloxy)-4-(methoxy)-8-hydroxy-2H-1-benzopyran-2-one], the inhibition in vivo at 10 mg/kg is 33%. The result for `CC(C)=CCC/C(C)=C/COc1cccc2oc(=O)c(OC(=O)c3ccccc3)c(OC(C)C)c12` [Compound 251, 3-(benzoyloxy)-4-(isopropoxy)-5-(geranyloxy)-2H-1-benzopyran-2-one] reads 30%.

The values above are taken from patent publication US5428059A, “Benzopyran derivatives and an anti-allergic agent possessing the same as the active ingredient” (Dainippon Ink & Chemicals, Inc., priority 1991, dated 1995).
